{"source": "patent US20220211603A1", "about": "“Oral Compositions And Methods Of Use” (3M INNOVATIVE PROPERTIES COMPANY, priority 2019, published 2022)", "test_system": "Streptococcus mutans (ATCC 25175) biofilm", "test": "MBEC Biofilm Disruption Assay", "assay_type": "cell-based", "settings": "glucosamine HCl combined with MEGA-9 in water", "text": "In some embodiments, disclosed compositions can prevent, inhibit, disrupt the formation or maintenance of a biofilm in an area contacted with the composition. The area contacted can be in vivo or in vitro. In some embodiments, a composition can prevent, inhibit, disrupt the formation or maintenance of a biofilm in a mouth of a user where the composition was applied to the mouth, for example via spraying the composition into the mouth when compared to a mouth without the composition applied thereto. […] Preventing, inhibiting, disrupting, or some combination thereof the formation or maintenance of biofilms can be measured using a modified version of the MBEC assay (described in ASTM […]-12), which measures disruption of Streptococcus mutans biofilms grown on special pegs in a microtiter plate. […] The biofilm remaining on each peg following treatment is quantified by measuring the amount of fluorescently labeled bacteria that eluted from the pegs at the end of the treatment cycles (see example). […] Decreasing plaque buildup can be measured by a variety of methods in vivo including for example plaque scoring, dyeing of plaque, etc. […] Control wells for fluorescence readings were also filled with 150 microliter of phosphate-buffered saline (PBS) or non-bacteria-containing media consisting of BHI with 1% sucrose and 1 micromolar ALEXA FLUOR 488 dextran. […]"}
{"smiles": "Cl.N[C@H]1C(O)O[C@H](CO)[C@@H](O)[C@@H]1O", "note": "(stereo partly shown) [Glucosamine HCl]", "values": [{"measurement": "effect on biofilm disruption of MEGA-9 (in words)", "value": "enhanced the biofilm disruption effect of MEGA-9"}]}
